# Where two headings read alike, the source gives them in different places.
# Test system: alpha-MyHC
# Experiment: alpha-MyHC cytoblot process in neonatal rat ventricular myocytes (NRVM)
# Assay type: cell-based
# [1] = Table 2 (esters), NRVM, 72 hours, alpha-MyHC cytoblot
# [2] = Table 2 (esters), NRVM, 72 hours, maximum of dose response fit
# [3] = Table 1, NRVM, 72 hours, alpha-MyHC cytoblot, mean ± spread
# [4] = Table 1, NRVM, 72 hours, maximum of dose response fit, low control = vehicle only
EC50 [1] [nM],EC50 [3] [nM],SMILES,Max Plateau [2],Max Plateau [4],also measured
142,,COCCOC(=O)C1=C(C)Nc2sc(C(=O)c3ccc(Cl)c(Cl)c3)c(N)c2C1c1ccccc1 (stereo not shown) [Compound 119],234.93 per cent fraction of low control,,
21.4,,CCC1=C(C(=O)OC)C(c2ccccc2F)c2c(sc(C(=O)c3ccc(Cl)c(C)c3)c2N)N1 (stereo not shown) [Compound 150],228.28 per cent fraction of low control,,
,97.1,CC(=O)C1=C(C)Nc2sc(C(=O)c3cccc(F)c3)c(N)c2C1c1ccccc1 (stereo not shown) [Compound 61],,230.65 ± 55.61 per cent fraction of low control,
19.3,,CCC1=C(C(=O)OC)C(c2cccc(Cl)c2F)c2c(sc(C(=O)c3ccc(Cl)c(Cl)c3)c2N)N1 (stereo not shown) [Compound 155],224.86 per cent fraction of low control,,
,,CC(=O)C1=C(C)Nc2sc(C(=O)c3ccc(Cl)c(Cl)c3)c(N)c2C1c1ccc(Cl)cc1Cl (stereo not shown) [Compound 52],,122.73 ± 20.55 per cent fraction of low control,
42.1,,COC(=O)C1=C(C2CC2)Nc2sc(C(=O)c3cccc(Cl)c3)c(N)c2C1c1ccnc(F)c1 (racemic) [Compound 176],218.25 per cent fraction of low control,,
2.42,,CCC1=C(C(=O)OC)C(c2ccccc2F)c2c(sc(C(=O)c3cccc([N+](=O)[O-])c3)c2N)N1 (stereo not shown) [Compound 140],266.63 per cent fraction of low control,,
,31.7,CCC(=O)C1=C(CC)Nc2sc(C(=O)c3ccccc3)c(N)c2C1c1c(F)cccc1F (stereo not shown) [Compound 69],,221.36 ± 15.94 per cent fraction of low control,
2910,,CCOC(=O)C1=C(CC)Nc2sc(C(=O)c3cccc(C(=O)O)c3)c(N)c2C1c1ccccc1 (stereo not shown) [Compound 152],238.69 per cent fraction of low control,,
35.4,,CCC1=C(C(=O)OCC(C)C)C(c2ccccc2)c2c(sc(C(=O)c3ccc(Cl)c(Cl)c3)c2N)N1 (stereo not shown) [Compound 161],232.35 per cent fraction of low control,,
,2680,CC(=O)C1=C(C)Nc2sc(C(=O)c3ccncc3)c(N)c2C1c1ccccc1 (stereo not shown) [Compound 10],,210.00 ± 36.06 per cent fraction of low control,
,9.69,CCC(=O)C1=C(CC)Nc2sc(C(=O)c3ccc(Cl)c(C)c3)c(N)c2C1c1ccccc1 (stereo not shown) [Compound 89],,230.09 ± 19.81 per cent fraction of low control,
,,CCCCNC(=O)C1=C(C)Nc2sc(C(=O)c3ccc(Cl)c(Cl)c3)c(N)c2C1c1ccccc1 (racemic) [Compound 196],,,"EC50 (Table 3 (amides), NRVM, 72 hours, alpha-MyHC cytoblot): 334000 nM; Max Plateau (Table 3 (amides), NRVM, 72 hours, maximum of dose response fit): 121.93 ± 25.12 per cent fraction of low control"
,129,CCC(=O)C1=C(CC)Nc2sc(C(=O)c3ccc(Cl)c(Cl)c3)c(N)c2C1c1cccc([N+](=O)[O-])c1 (stereo not shown) [Compound 58],,232.20 ± 56.57 per cent fraction of low control,
,,CCC(=O)C1=C(CC)Nc2sc(C(=O)c3ccc(Cl)c(Cl)c3)c(N)c2C1c1ccccc1C(F)(F)F (stereo not shown) [Compound 60],,100.00 ± 0.00 per cent fraction of low control,
,9.84,CCC(=O)C1=C(CC)Nc2sc(C(=O)c3cccc(C(=O)OC)c3)c(N)c2C1c1ccccc1 (stereo not shown) [Compound 74],,262.81 ± 32.38 per cent fraction of low control,
,,CCOC(=O)C1=C(C)Nc2sc(C(=O)c3ccccc3)c(N)c2C1(C)c1ccccc1 (stereo not shown) [Compound 206],,,"Max Plateau (Table 4, NRVM, 72 hours, maximum of dose response fit): 169.32 ± 23.07 per cent fraction of low control"
,,"CCC1=C(C(=O)OCCOC)C(c2ccnc(F)c2)c2c(sc(C(=O)c3cccc(Cl)c3)c2N)N1 (single isomer, unassigned) [Compound 183]",284.35 ± 38.37 per cent fraction of low control,,
,,CC(=O)C1=C(C)Nc2sc(C(=O)c3ccc(Cl)c(Cl)c3)c(N)c2C1c1cccc2c1OCO2 (stereo not shown) [Compound 31],,121.08 ± 18.32 per cent fraction of low control,
,,COc1cccc(C2C(C(C)=O)=C(C)Nc3sc(C(=O)c4ccccc4)c(N)c32)c1 (stereo not shown) [Compound 15],,126.50 ± 24.27 per cent fraction of low control,
6.91,,CCC1=C(C(=O)OC)C(c2ccccc2)c2c(sc(C(=O)c3cccc([N+](=O)[O-])c3)c2N)N1 (stereo not shown) [Compound 139],281.08 per cent fraction of low control,,
,4290,CC(=O)C1=C(C)Nc2sc(C(=O)c3ccccn3)c(N)c2C1c1ccccc1 (stereo not shown) [Compound 16],,163.33 ± 32.15 per cent fraction of low control,
,425,CCC(=O)C1=C(CC)Nc2sc(C(=O)c3ccc(Cl)c(Cl)c3)c(N)c2C1c1ccccc1[N+](=O)[O-] (stereo not shown) [Compound 59],,152.77 ± 11.42 per cent fraction of low control,
,,CC1=C(C(=O)OCCN)C(c2ccccc2)c2c(sc(C(=O)c3ccc(Cl)c(Cl)c3)c2N)N1 (racemic) [compound 213],,,EC50: 326 nM; Max Plateau: 208.56 ± 23.45
,,CCC1=C(C(=O)OCCOC)C(c2ccccc2F)c2c(sc(C(=O)c3cccc(C#N)c3)c2N)N1 (racemic) [Compound 178],258.67 ± 45.31 per cent fraction of low control,,

EC50 [1] [nM],EC50 [3] [nM],SMILES,Max Plateau [2],Max Plateau [4],also measured
,4590,CC(=O)C1=C(C)Nc2sc(C(=O)c3ccc(Cl)c(Cl)c3)c(N)c2C1c1ccc[nH]1 (stereo not shown) [Compound 42],,160.56 ± 20.02 per cent fraction of low control,
,9.23,CCC(=O)C1=C(CC)Nc2sc(C(=O)c3ccc(F)c(F)c3)c(N)c2C1c1ccccc1 (stereo not shown) [Compound 72],,223.99 ± 24.51 per cent fraction of low control,
,3.72,CCC(=O)C1=C(CC)Nc2sc(C(=O)c3ccc(F)c(F)c3)c(N)c2C1c1cc(F)cc(F)c1 (stereo not shown) [Compound 101],,230.49 ± 17.13 per cent fraction of low control,
3.69,,CCC1=C(C(=O)OC)C(c2cccc(Cl)c2F)c2c(sc(C(=O)c3cccc([N+](=O)[O-])c3)c2N)N1 (stereo not shown) [Compound 156],243.78 per cent fraction of low control,,
,,CC(=O)C1=C(C)Nc2sc(C(=O)c3ccc(Cl)c(Cl)c3)c(N)c2C1c1ccc(C(C)(C)C)cc1 (stereo not shown) [Compound 32],,100.00 ± 0.00 per cent fraction of low control,
33.3,,"CCC1=C(C(=O)OC(C)CC)C(c2ccccc2F)c2c(sc(C(=O)c3cccc(C#N)c3)c2N)N1 (single isomer, unassigned) [Compound 166]",219.07 per cent fraction of low control,,
,,CC(C)C(=O)C1=C(C(C)C)Nc2sc(C(=O)c3ccc(Cl)c(Cl)c3)c(N)c2C1c1ccccc1 (stereo not shown) [Compound 46],,98.33 ± 4.08 per cent fraction of low control,
7.12,,CCOC(=O)C1=C(CC)Nc2sc(C(=O)c3ccc(Cl)c(Cl)c3)c(N)c2C1c1ccncc1F (stereo not shown) [Compound 168],239.64 per cent fraction of low control,,
,,CC(=O)C1=C(C)Nc2sc(C(=O)c3ccc(Cl)c(Cl)c3)c(N)c2C1c1ccc(C)cc1 (stereo not shown) [Compound 45],,108.63 ± 9.14 per cent fraction of low control,
5.24,,CCC1=C(C(=O)OC)C(c2ccccc2)c2c(sc(C(=O)c3cccc(C#N)c3)c2N)N1 (stereo not shown) [Compound 143],290.53 per cent fraction of low control,,
142,,"CCC1=C(C(=O)OC(C)CC)C(c2ccccc2F)c2c(sc(C(=O)c3ccc(Cl)c(Cl)c3)c2N)N1 (single isomer, unassigned) [Compound 163]",224.85 per cent fraction of low control,,
111000,,CCC1=C(C(=O)OC)C(c2ccccc2F)c2c(sc(C(=O)c3cccc(Cl)c3)c2N)N1 (stereo not shown) [Compound 167],255.95 per cent fraction of low control,,
,281,CC(=O)C1=C(C)Nc2sc(C(=O)c3ccccc3)c(N)c2C1c1ccc(F)cc1 (stereo not shown) [Compound 37],,227.92 ± 12.46 per cent fraction of low control,
,118,CCCC(=O)C1=C(CCC)Nc2sc(C(=O)c3cc(Cl)ccc3Cl)c(N)c2C1c1ccccc1 (stereo not shown) [Compound 94],,153.83 ± 13.14 per cent fraction of low control,
68,,CCOC(=O)C1=C(C)Nc2sc(C(=O)c3ccc(Cl)c(Cl)c3)c(N)c2C1c1ccccc1 (stereo not shown) [Compound 113],256.38 per cent fraction of low control,,
,,Nc1c(C(=O)c2ccccc2)sc2c1C(c1ccccc1)C(C(=O)c1ccccc1)=C(c1ccccc1)N2 (stereo not shown) [Compound 30],,100.00 ± 0.00 per cent fraction of low control,
,,CC(=O)C1=C(C)Nc2sc(C(=O)c3cccc(C(=O)O)c3)c(N)c2C1c1ccccc1 (stereo not shown) [Compound 65],,100.00 ± 0.00 per cent fraction of low control,
,233,CCC(=O)C1=C(CC)Nc2sc(C(=O)c3ccccc3)c(N)c2C1c1cccnc1 (stereo not shown) [Compound 68],,175.88 ± 14.54 per cent fraction of low control,
,,CC(=O)C1=C(C)Nc2sc(C(=O)c3ccc(Cl)c(Cl)c3)c(N)c2C1c1ccc(CNC(=O)OC(C)(C)C)cc1 (stereo not shown) [Compound 25],,100.00 ± 0.00 per cent fraction of low control,
,50.5,CCCC(=O)C1=C(CCC)Nc2sc(C(=O)c3cc(Cl)ccc3Cl)c(N)c2C1c1ccccc1F (stereo not shown) [Compound 92],,189.00 ± 25.40 per cent fraction of low control,
197,,"CCC1=C(C(=O)OC(C)CC)C(c2ccccc2F)c2c(sc(C(=O)c3ccc(Cl)c(Cl)c3)c2N)N1 (single isomer, unassigned) [Compound 162]",183.22 per cent fraction of low control,,
,15.5,CC(=O)C1=C(C)Nc2sc(C(=O)c3ccc(Cl)c(Cl)c3)c(N)c2C1c1ccc(O)cc1Cl (stereo not shown) [Compound 29],,281.88 ± 32.78 per cent fraction of low control,
1710,,CCC1=C(C(=O)OCC(C)OC)C(c2ccccc2F)c2c(sc(C(=O)c3cccc(C#N)c3)c2N)N1 (stereo not shown) [Compound 185],172.89 ± 23.52 per cent fraction of low control,,
,3030,COc1ccc(C2C(C(C)=O)=C(C)Nc3sc(C(=O)c4ccccc4)c(N)c32)cc1 (stereo not shown) [Compound 14],,182.73 ± 26.95 per cent fraction of low control,
